Here are results for 16 compounds from patent US20030055065A1, “Tricyclic amide and urea compounds useful for inhibition of G-protein function and for treatment of proliferative diseases” (priority 1993, published 2003).

The structures appear in SMILES notation. pIC50: −log10 of the molar value. Like-named read-outs stand apart in the source and are kept apart here.

Series [1] has as its target T1, farnesyl protein transferase (FPT), partially purified from rat brain (Rattus norvegicus, UniProt Q02293+Q04631).
T1 construct: were partially purified from rat brain by ammonium sulfate fractionation followed by Q-Sepharose
In words: Inhibition of farnesyl protein transferase (transfer of [3H]farnesyl to Ras-CVLS). To be noted: for pIC50: read-out: FPT IC50. Type of series: biochemical. A digest of the protocol: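 Partially purified farnesyl protein transferase with His6-tagged val12-Ha-Ras-CVLS substrate and [3H]farnesyl pyrophosphate, 30 min at room temperature. Stopped with SDS/TCA, precipitated Ras collected on GF/C filters; percent inhibition relative to DMSO vehicle control.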

The subject of series [2] is Ras-CVLS processing in COS monkey kidney cells. In words: COS cell assay: Ras-CVLS processing (Western blot). Type of series: cell-based. The settings on record: Primates, COS, COS cells; read-out: Inhibition of Ras Processing IC50. The method in brief:
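COS cells electroporated with Ras-CVLS (farnesyl transferase substrate) cDNA, with drug-containing fresh medium added at 24 h and cells examined at 48 h. TCA-precipitated cellular protein was resolved by SDS gel and immunoblotted with anti-p21 Ras monoclonal and HRP anti-rat IgG to monitor Ras processing.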
On the technique in general: In western blotting, separated proteins are transferred to a membrane and probed.

Series [3] deals with T24-BAG4 human bladder carcinoma cells expressing an activated H-ras gene. In words: Cell Mat Assay: tumor cell colony inhibition (tIC50). The class given is cell-based. To be noted: Homo sapiens, inhibition of tumor cell growth. A digest of the protocol: (§1)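 Serial compound dilutions added 24 h after planting T24-BAG4 cells onto a mat of normal cells, then 14 d colony growth; monolayers glutaraldehyde-fixed and tumor cells X-Gal stained. tIC50 and mIC50 from microscope counts of colonies, cells per colony and mat cell density.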

The test system of series [4] is Normal human HEPM fibroblasts. In words: Cell Mat Assay: density of mat cells (mIC50). The class given is cell-based. The settings on record: Homo sapiens, Fibroblast. A digest of the protocol:
as §1

The mark [5] stands for this setting: Ras-CVLS farnesylation, partially purified rat brain FPT.

T1 sequence (Q02293 whole entry, one chain of several): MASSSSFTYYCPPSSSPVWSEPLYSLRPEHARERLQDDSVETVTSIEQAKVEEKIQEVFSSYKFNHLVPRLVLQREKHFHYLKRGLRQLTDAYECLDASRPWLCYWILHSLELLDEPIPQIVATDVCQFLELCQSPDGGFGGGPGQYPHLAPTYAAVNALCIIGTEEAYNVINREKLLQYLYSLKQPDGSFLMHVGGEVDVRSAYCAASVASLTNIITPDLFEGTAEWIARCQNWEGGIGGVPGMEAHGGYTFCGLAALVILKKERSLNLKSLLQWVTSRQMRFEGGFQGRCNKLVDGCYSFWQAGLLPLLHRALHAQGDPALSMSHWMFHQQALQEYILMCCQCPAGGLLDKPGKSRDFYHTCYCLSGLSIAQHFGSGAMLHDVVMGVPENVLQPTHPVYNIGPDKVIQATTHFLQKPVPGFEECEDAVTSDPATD

`O=C(Cc1ccccn1)N1CCC(=C2c3ccc(Cl)cc3CCc3cccnc32)CC1` [Example 6] registered a melting point of 122 to 125 °C. The negative logarithm of the IC50 (pIC50) in series [1] (setting [5]) is 5.70. Also, in series [2], the pIC50 is 5.00. In series [3], the pIC50 was 4.90. This compound had a negative logarithm of the IC50 (pIC50) in series [4] of 4.30.
In the case of `O=C(C(c1ccccc1)c1ccccc1)N1CCC(=C2c3ccc(Cl)cc3CCc3cccnc32)CC1` [Example 42], the melting point was 114.2 to 115.8 °C. Also, the negative logarithm of the IC50 (pIC50) in series [1] (setting [5]) is 6.22. The pIC50 in series [2] is 5.24. In addition, in series [3], the negative logarithm of the IC50 (pIC50) was 4.30. The compound also showed a negative logarithm of the IC50 (pIC50) in series [4] of less than 4.30.
Compound `O=C(Cc1ccc(Br)cc1)N1CCC(=C2c3ccc(Cl)cc3CCc3cccnc32)CC1` [Example 43] had a melting point of 93.3 to 94.6 °C. For the same compound, the pIC50 in series [1] (setting [5]) was 6.22. In series [2], the pIC50 is 5.01. The compound also had a negative logarithm of the IC50 (pIC50) in series [3] of 4.60. This compound also gave a pIC50 in series [4] of 4.30.
The like results for `O=C(Cc1ccccc1)N1CCC(=C2c3ccc(Cl)cc3CCc3cccnc32)CC1` [Example 44] were, in that order, 112 to 114.6 °C, 6.10, 4.94, 4.60 and 4.60.
The like results for `CCC(C(=O)N1CCC(=C2c3ccc(Cl)cc3CCc3cccnc32)CC1)c1ccccc1` (stereo not drawn) [Example 48] were, in that order, 82.7 to 83.8 °C, 5.89, 4.97, 4.90 and 4.60.
`O=C(Cc1cc[n+]([O-])cc1)N1CCC(C2c3ccc(Cl)cc3CCc3ccc[n+]([O-])c32)CC1` (stereo not drawn) [Example 238]: the melting point lay in the range of 85 to 85.6 °C. This compound also displayed an inhibition at 4 µM in series [1] (at 4 μM) of 26%. In addition, the negative-log IC50 (pIC50) in series [3] was less than 4.30. In addition, the pIC50 in series [4] was less than 4.30.
Compound `O=C(Cc1cccnc1)N1CCC(=C2c3ccc(Cl)cc3CCc3c(On4nnc5ccccc54)ccnc32)CC1` [Example 251] returned a melting point of 120 to 122 °C. The pIC50 in series [1] (setting [5]) was 6.12. Further, in series [2], the pIC50 was 5.09.
Turning to `CCc1cc2c(cc1Cl)C=Cc1cccnc1C2C1CCN(C(=O)Cc2cccnc2)CC1` (stereo not drawn) [Example 270], the melting point was 67.2 to 69.8 °C. In addition, the negative logarithm of the IC50 (pIC50) in series [1] (setting [5]) was 5.55.
Compound `O=C(Cc1ccncc1)N1CCC(=C2c3ccc(Cl)cc3CCc3cc([N+](=O)[O-])cnc32)CC1` [Example 358] gave a melting point of 111.3 to 112.2 °C. The pIC50 in series [1] (setting [5]) was 6.24.
With `O=C(Nc1ccccc1)N1CCC(=C2c3ccc(Cl)cc3CCc3c2ncc(Br)c3Cl)CC1` [Example 414], the melting point is 125.6 °C (dec.). Besides, the pIC50 in series [1] (enzyme inhibition) was 6.05.
Turning to `O=C(Cc1ccncc1)N1CCC(=C2c3ccc(Cl)cc3CCc3cc(Br)c(O)nc32)CC1` [Example 415], the melting point is 150 °C (dec.). Also, the pIC50 in series [1] (enzyme inhibition) was less than 5.42.
Consider `Cn1cc(Br)c(=O)c2c1C(=C1CCN(C(=O)Cc3ccncc3)CC1)c1ccc(Cl)cc1CC2` [Example 416], for which the melting point was 142 °C (dec.). The negative-log IC50 (pIC50) in series [1] (setting [5]) was 5.43.
`O=C(Nc1ccncc1)N1CCC(=C2c3ccc(Cl)cc3CCc3cc(Cl)ccc32)CC1` [Example 423] had a melting point of 206.4 to 207 °C. The “FPT inhibition at the concentration in parentheses” value in series [1] ((4.3) μM) is 35 (4.3). Further, the pIC50 in series [1] (enzyme inhibition) was less than 5.37.
Compound `O=C(O)c1ccc2c(c1)CCc1cccnc1C2=C1CCN(C(=O)Cc2ccncc2)CC1` [Example 435] showed a melting point of 238 to 240 °C. In addition, in series [1] (enzyme inhibition), the pIC50 was 5.15.
`O=C(NCc1ccccc1)c1ccc2c(c1)CCc1cccnc1C2=C1CCN(C(=O)Cc2ccncc2)CC1` [Example 436]: the melting point was 118 to 120 °C. Besides, the negative logarithm of the IC50 (pIC50) in series [1] (setting [5]) is 4.77.
As for `O=C(Nc1ccc2c(c1)CCc1cccnc1C2=C1CCN(C(=O)Cc2ccncc2)CC1)OCc1ccccc1` [Example 437], the melting point fell in the range of 132.8 to 133.7 °C. Moreover, the “FPT inhibition at the concentration in parentheses” value in series [1] ((11) μM) is recorded as 36 (11).

What is called pIC50 is the negative decadic logarithm of the IC50, by convention in mol/L. As usually defined, the melting point is the temperature, or range, at which the solid turns liquid. Broadly, the inhibition is the drop in the measured response relative to a control, in per cent.
